Key:
[1] = Particle size and polydispersity index of nanoparticle compositions (Zetasizer Nano ZS); assay type: physicochemical; details: Table 1A; for Size (nm): lipid:DSPC:cholesterol:PEG-DMG 50:10:38.5:1.5 mol %
Outline: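 In 1×PBS, the compositions were sized on a Zetasizer Nano ZS, which also reported their polydispersity index.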

[2] = system: luciferase (Luc) mRNA; experiment: Luc expression, whole body bioluminescence after intravenous administration to mice; assay type: in vivo; details: mice, i.v., 0.5 mg/kg, Luc mRNA
Outline: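 Luc mRNA nanoparticle formulations given intravenously to mice (n=6) at 0.5 mg/kg; whole-body bioluminescence imaged at 3, 6 and 24 h. CD-1 mice received IP D-luciferin (200 μL of 15 mg/mL) 15 min before imaging; total flux quantified by region of interest.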

[3] = system: luciferase (Luc) mRNA; experiment: Luc expression (total flux) after intramuscular administration; assay type: in vivo, mice; details: for i.m. Lipid/MC3 0.01 mpk, Luc, 6 h: Table 3B; for Total flux (p/s) 0.01 mpk Dose: Table 5B
Experimental: In order to monitor how effectively various nanoparticle compositions deliver therapeutic and/or prophylactics to targeted cells, different nanoparticle compositions including a particular therapeutic and/or prophylactic (for example, a modified or naturally occurring RNA such as an mRNA) are prepared and administered to rodent populations. Mice are intravenously, intramuscularly, intraarterially, or intratumorally administered a single dose including a nanoparticle composition with a formulation such as those provided in Example 3. In some instances, mice may be made to inhale doses. Dose sizes may range from 0.001 mg/kg to 10 mg/kg, where 10 mg/kg describes a dose including 10 mg of a therapeutic and/or prophylactic in a nanoparticle composition for each 1 kg of body mass of the mouse. A control composition including PBS may also be employed.
Sample formulations including both modified luciferase (Luc) mRNA and H10 mRNA were prepared and administered intramuscularly and the resulting expression and immunogenicity were evaluated simultaneously. Formulations including compounds according to Formula (I), (IA), (IB), (II), (IIa), (IIb), (IIc), (IId), (IIe), (IIf), (IIg), (III), (VI), (VI-a), (VII), (VIII), (VIIa), (VIIIa), (VIIIb), (VIIb-1), (VIIb-2), (VIIb-3), (VIIc), (VIId), (VIIIc), or (VIIId) were prepared and administered at doses of 0.001 and 0.01 mpk (e.g., doses of 0.0005 mpk of a formulation including Luc mRNA and a formulation including H10 mRNA or doses of 0.005 mpk of a formulation including Luc mRNA and a formulation including H10 mRNA).
Sample formulations including modified luciferase (Luc) mRNA prepared and administered intramuscularly and the resulting expression and immunogenicity were evaluated simultaneously. Formulations including compounds according to Formula (I), (IA), (IB), (II), (IIa), (IIb), (IIc), (IId), (IIe), (IIf), (IIg), (III), (VI), (VI-a), (VII), (VIII), (VIIa), (VIIIa), (VIIIb), (VIIb-1), (VIIb-2), (VIIb-3), (VIIc), (VIId), (VIIIc), or (VIIId) were prepared and administered at dose of and 0.01 mpk.

[4] = Apparent (surface) pKa of the LNP formulation (TNS assay); assay type: physicochemical; details: Table 1A
Outline: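 LNP (0.04 mg/mL mRNA) mixed with TNS reagent in 21 buffers spanning about pH 3-12, in triplicate; fluorescence plotted against pH as sigmoidal curve. Apparent pKa taken as […] curve inflection point; validated in 1× PBS and 20 mM Tris w/8% sucrose.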

[5] = Encapsulation efficiency of RNA (QUANT-IT RIBOGREEN RNA assay); assay type: physicochemical; details: Table 1A
Outline: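 RiboGreen fluorescence (ex ~480, em ~520 nm) compared between intact samples and Triton X-100-lysed samples after 15 min at 37 °C in TE buffer, pH 7.5. Percent free RNA is the blank-corrected intact/disrupted ratio.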

[6] = system: luciferase (Luc) mRNA; experiment: Luc expression in liver, lung, spleen and femur 6 hours after intravenous administration; assay type: in vivo; details: mice, intravenous, 0.5 mpk
Outline: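 LNP-formulated mRNA given IV to mice (n=3) at 0.5 mpk; at 6 h, bioluminescence imaged ex vivo 15 min after IP D-luciferin (15 mg/mL, 200 μL), organs imaged within 25 min. Values are total flux by region of interest.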

[7] = 6 hours after intramuscular administration, 0.01 mpk

SMILES | PDI [1] | Size (nm) [1] | Total Flux 3 hours [2] | Total Flux 6 hours [2] | Total Flux 24 hours [2] | Total flux, 0.001 mpk Dose ([3]; 6 hours after intramuscular administration, 0.001 mpk, Luc mRNA and H10 mRNA) | Total flux, 0.01 mpk Dose ([3]; 6 hours after intramuscular administration, 0.01 mpk, Luc mRNA and H10 mRNA) | pKa [4] | EE (%) [5] | Total Flux Liver [6] | Total Flux Lung [6] | Total Flux Spleen [6] | i.m. Lipid/MC3 0.01 mpk, Luc, 6 h ([3]; 0.01 mpk) | Total flux (p/s) 0.01 mpk Dose [3, 7] | Novel lipid/MC3 expression ratio, 6 hr. time point, i.m. Luc ([3]; intramuscular, relative to MC3 formulation)
CCCCCCCCCN(CCCCCCCC(=O)OC(CCCCCCCC)CCCCCCCC)CCCn1ccnc1 [Compound 8, Heptadecan-9-yl 8-((3-(1H-imidazol-1-yl)propyl)(nonyl)amino)octanoate] | 0.15 | 121.0 nm | 7.43E+09 | 6.71E+09 | 7.84E+08 | 7.81E+05 p/s | 3.32E+06 p/s | 6.64 | 95.8% | 7.87E+08 | 4.06E+06 | 1.51E+08 |  |  | 
CCCCCCCCCOC(=O)CCCCCCCN(CCCCCCCC(=O)OC(CCCCCCCC)CCCCCCCC)CCCN(C)S(C)(=O)=O [Compound 173, Heptadecan-9-yl 8-((3-(N-methylmethylsulfonamido)propyl)(8-(nonyloxy)-8-oxooctyl)amino)octanoate] | 0.16 | 75.5 nm |  |  |  |  |  | 6.31 | 92.89% |  |  |  | 0.6 |  | 
CCCCCCCCCOC(=O)CCCCCCCN(CCCCCCCC(=O)OC(CCCCCCCC)CCCCCCCC)CCCn1ccc(=O)[nH]c1=O [Compound 114, Heptadecan-9-yl 8-((3-(2,4-dioxo-3,4-dihydropyrimidin-1(2H)-yl)propyl)(8-(nonyloxy)-8-oxooctyl)amino)octanoate] | 0.11 | 65.1 nm | 8.41E+07 | 5.98E+07 |  |  |  | 6.42 | 98.8% |  |  |  |  | 3.31E+06 p/s | 
CCCCCCCCCOC(=O)CCCCCCCN(CCCCCCCC(=O)OC(CCCCCCCC)CCCCCCCC)CCCN1C(=O)CNC1=O [Compound 174, Heptadecan-9-yl 8-((3-(2,5-dioxoimidazolidin-1-yl)propyl)(8-(nonyloxy)-8-oxooctyl)amino)octanoate] | 0.21 | 84.4 nm |  |  |  |  |  | 6.65 | 99.0% |  |  |  | 0.2 |  | 
CCCCCCCCCOC(=O)CCCCCCCN(C)CCCCCCCC(=O)OC(CCCCCCCC)CCCCCCCC [Compound 123, Heptadecan-9-yl 8-(methyl(8-(nonyloxy)-8-oxooctyl)amino)octanoate] |  |  | 4.06E+09 | 1.81E+10 | 5.18E+08 |  |  | 6.27 |  | 2.50E+08 | 1.78E+06 | 4.04E+06 |  | 1.08E+07 p/s | 
CCCCCCCCCOC(=O)CCCCCCCN(CCCCCCCC(=O)OC(CCCCCCCC)CCCCCCCC)CCCn1cc(CO)nn1 [Compound 218, Heptadecan-9-yl 8-((3-(4-(hydroxymethyl)-1H-1,2,3-triazol-1-yl)propyl)(8-(nonyloxy)-8-oxooctyl)amino)octanoate] | 0.21 | 81.4 nm |  |  |  |  |  | 6.59 | 98.8% |  |  |  |  |  | 1.77
CCCCCCCCCOC(=O)CCCCCCCN(CCCCCCCC(=O)OC(CCCCCCCC)CCCCCCCC)CCCOC(=O)NC [Compound 175, Heptadecan-9-yl 8-((3-((methylcarbamoyl)oxy)propyl)(8-(nonyloxy)-8-oxooctyl)amino)octanoate] | 0.16 | 65.7 nm |  |  |  |  |  | 6.15 | 94.8% |  |  |  | 0.1 |  | 
CCCCCCCCCOC(=O)CCCCCCCN(CCCN)CCCCCCCC(=O)OC(CCCCCCCC)CCCCCCCC [Compound 121, Heptadecan-9-yl 8-((3-aminopropyl)(8-(nonyloxy)-8-oxooctyl)amino)octanoate] |  |  | 1.29E+06 | 1.36E+06 |  |  |  | 8.50 |  |  |  |  |  | 1.06E+06 p/s | 
